Patent publication US20230355618A1, “RAF INHIBITOR FOR TREATING LOW GRADE GLIOMA” (Day One Biopharmaceuticals, Inc., priority 2020, published 2023)

Legend:
[1] = system: pediatric low grade glioma (pLGG); assay: Phase 1 pediatric dose-escalation trial: tumor response by RANO criteria; format: in vivo, human; details: for Best RANO Response (T1-Gad): pLGG
Method: (§1) A 3+3 design is used. Based on the adult dose of 350 mg/m^2 by mouth every week (using a typical adult BSA of 1.7 m^2), the starting dose for the pediatric study was 80% of the adult RP2D, which was 280 mg/m^2 by mouth every week. Doses were escalated in an inter-patient stepwise fashion until dose-limiting toxicities (DLTs) were observed. The three different dose levels: 280 mg/m^2, 350 mg/m^2, and […].
(§2) Treatment began at 80% of the adult dose (i.e., 280 mg/m^2 by mouth once weekly based on the following calculation: • An adult dose of 600 mg once weekly and an average adult BSA (m^2) of 1.73 m^2=350 mg/m^2 • 80% of 350 mg/m^2=280 mg/m^2 starting dose
(§3) The dose escalation scheme is described in Table 1-A. The initial phase included 3 dose escalation levels to a maximum of 530 mg/m^2/dose weekly.
FIG. 2 illustrates Phase 1 trial data of these nine individual pediatric LGG (pLGG) patient responses to Compound A over time. […] The median time to response was 10.5 weeks. Two patients achieved a complete response that was maintained throughout the dosing period of up to two years.
Two of eight patients with a RAF fusion had prolonged stable disease.

[2] = Phase 1 pediatric dose-escalation trial: pharmacokinetic studies (exposure, AUC0-∞); format: in vivo, human; details: for AUC(0-inf): human, plasma, oral
Method: as §1, §2, §3
Pharmacokinetic studies were performed on all patients in the phase I component of the trial as venous access allowed. The initial phase 1 included 3 dose escalation levels to a maximum of 530 mg/m^2/dose weekly. PK studies were also conducted to evaluate phosphorylated ERK in the peripheral blood mononuclear cells.

[3] = pLGG patients with a RAF fusion, Phase 1

Structure (SMILES): C[C@@H](NC(=O)c1ncnc(N)c1Cl)c1ncc(C(=O)Nc2cc(C(F)(F)F)c(Cl)cn2)s1 [Compound A, (R)-2-(1-(6-amino-5-chloropyrimidine-4-carboxamido)ethyl)-N-(5-chloro-4-(trifluoromethyl)pyridin-2-yl)thiazole-5-carboxamide]
- patients who did not respond ([1]; NF1-associated pLGG, Phase 1): One
- Best RANO Response (T1-Gad) ([1]; Subject-1 (PNOC014-01), BSA 0.86 m^2, dose cohort 280 mg/m^2 once weekly): CR (CR = −100%)
- Best RANO Response (T1-Gad) ([1]; Subject-2 (PNOC014-02), BSA 1.0 m^2, dose cohort 280 mg/m^2 once weekly): PR (PR = −50% or more reduction from baseline)
- Best RANO Response (T1-Gad) ([1]; Subject-3 (PNOC014-03), BSA 0.79 m^2, dose cohort 280 mg/m^2 once weekly): PR (PR = −50% or more reduction from baseline)
- Best RANO Response (T1-Gad) ([1]; Subject-4 (PNOC014-04), BSA 1.71 m^2, dose cohort 350 mg/m^2 once weekly): PD (PD = ≥25% growth from nadir)
- Best RANO Response (T1-Gad) ([1]; Subject-5 (PNOC014-05), BSA 1.71 m^2, dose cohort 350 mg/m^2 once weekly): SD (SD = between −50% and +25%)
- Best RANO Response (T1-Gad) ([1]; Subject-6 (PNOC014-06), BSA 1.6 m^2, dose cohort 350 mg/m^2 once weekly): PD (PD = ≥25% growth from nadir)
- Best RANO Response (T1-Gad) ([1]; Subject-7 (PNOC014-07), BSA 1.48 m^2, dose cohort 420 mg/m^2 once weekly): SD (SD = between −50% and +25%)
- Best RANO Response (T1-Gad) ([1]; Subject-9 (PNOC014-09), BSA 0.71 m^2, dose cohort 420 mg/m^2 once weekly): PR (PR = −50% or more reduction from baseline)
- patients achieving a complete response maintained throughout the dosing period of up to two years ([1]; nine pLGG patients, Phase 1): Two
- patients achieving prolonged stable disease ([1]; nine pLGG patients, Phase 1): two
- patients who did not achieve a response ([1]; nine pLGG patients, Phase 1): two
- patients with a partial response ([1]; nine pLGG patients, Phase 1): Three
- patients with shrinkage in lesion size in the first radiologic images after initiation of dosing ([1]; nine pLGG patients, Phase 1): six of nine
- median time to response ([1]; nine pLGG patients, Phase 1, 280-420 mg/m^2 once weekly): 10.5 weeks
- patients who did not respond [1, 3]: One
- patients with complete or partial response per RANO criteria (≥50% decrease compared with baseline) [1, 3]: Five of the eight
- patients with prolonged stable disease [1, 3]: Two of eight
- Dose normalized AUC0-∞ ([2]; Subject-1 (PNOC014-01), predicted exposure at 530 mg/m^2 (predicted dose 456, 21 mg/kg), original dose cohort 280 mg/m^2): 1268 µg·h/L
- Dose normalized AUC0-∞ ([2]; Subject-2 (PNOC014-02), predicted exposure at 530 mg/m^2 (predicted dose 530, 19 mg/kg), original dose cohort 280 mg/m^2): 682 µg·h/L
- Dose normalized AUC0-∞ ([2]; Subject-3 (PNOC014-03), predicted exposure at 530 mg/m^2 (predicted dose 419, 23 mg/kg), original dose cohort 280 mg/m^2): 614 µg·h/L
- Dose normalized AUC0-∞ ([2]; Subject-4 (PNOC014-04), predicted exposure at 530 mg/m^2 (predicted dose 906, 13 mg/kg), original dose cohort 350 mg/m^2): 705 µg·h/L
- Dose normalized AUC0-∞ ([2]; Subject-5 (PNOC014-05), predicted exposure at 530 mg/m^2 (predicted dose 906, 14 mg/kg), original dose cohort 350 mg/m^2): 653 µg·h/L
- Dose normalized AUC0-∞ ([2]; Subject-6 (PNOC014-06), predicted exposure at 530 mg/m^2 (predicted dose 848, 16 mg/kg), original dose cohort 350 mg/m^2): 640 µg·h/L
- Dose normalized AUC0-∞ ([2]; Subject-7 (PNOC014-07), predicted exposure at 530 mg/m^2 (predicted dose 784, 15 mg/kg), original dose cohort 420 mg/m^2): 701 µg·h/L
- Dose normalized AUC0-∞ ([2]; Subject-9 (PNOC014-09), predicted exposure at 530 mg/m^2 (predicted dose 376, 24 mg/kg), original dose cohort 420 mg/m^2): 1122 µg·h/L
- AUC(0-inf) ([2]; 280 mg/m^2, Subject-1 (PNOC014-01), 21.9 kg, BSA 0.86 m^2, dose cohort 280 mg/m^2 by mouth once weekly, dose given 240 mg (11.0 mg/kg)): 670 ng·h/mL
- AUC(0-inf) ([2]; 280 mg/m^2, Subject-2 (PNOC014-02), 28.2 kg, BSA 1.0 m^2, dose cohort 280 mg/m^2 by mouth once weekly, dose given 280 mg (9.9 mg/kg)): 361 ng·h/mL
- AUC(0-inf) ([2]; 280 mg/m^2, Subject-3 (PNOC014-03), 18.1 kg, BSA 0.79 m^2, dose cohort 280 mg/m^2 by mouth once weekly, dose given 220 mg (12.2 mg/kg)): 324 ng·h/mL
- AUC(0-inf) ([2]; 350 mg/m^2, Subject-4 (PNOC014-04), 69.6 kg, BSA 1.71 m^2, dose cohort 350 mg/m^2 by mouth once weekly, dose given 600 mg (8.6 mg/kg)): 466 ng·h/mL
- AUC(0-inf) ([2]; 350 mg/m^2, Subject-5 (PNOC014-05), 66.5 kg, BSA 1.71 m^2, dose cohort 350 mg/m^2 by mouth once weekly, dose given 600 mg (9.0 mg/kg)): 431 ng·h/mL
- AUC(0-inf) ([2]; 350 mg/m^2, Subject-6 (PNOC014-06), 53.6 kg, BSA 1.6 m^2, dose cohort 350 mg/m^2 by mouth once weekly, dose given 560 mg (10.4 mg/kg)): 423 ng·h/mL
- AUC(0-inf) ([2]; 420 mg/m^2, Subject-7 (PNOC014-07), 53.7 kg, BSA 1.48 m^2, dose cohort 420 mg/m^2 by mouth once weekly, dose given 620 mg (11.5 mg/kg)): 556 ng·h/mL
- AUC(0-inf) ([2]; 420 mg/m^2, Subject-9 (PNOC014-09), 15.6 kg, BSA 0.71 m^2, dose cohort 420 mg/m^2 by mouth once weekly, dose given 300 mg (19.2 mg/kg)): 889 ng·h/mL
